How the values were obtained:
[1] = test system: Neotropical Brown Stink Bug (Euschistus heros, EUSCHE, BSB); test: Bioassay 5: neotropical brown stink bug, artificial agar diet; assay type: in vivo
Experimental: Stock solutions were prepared with F1 as well as for each of the active ingredients individually. Test solutions were prepared from the stock solutions. Test solutions were prepared containing F1, the individual active ingredients, and mixtures of F1 with each of the active ingredients. The test solution for F1 and the individual active ingredients were prepared by adding 30 μL of the stock solution to a single well of a 96 well plate, then adding 30 μL of DMSO, followed by the addition of 140 μL of a 2:1 mixture of acetone:water as a diluent to create a 0.03% (w/v) solution. […]
The test solutions were tested against BSB using the following procedure: an artificial agar diet (2% agar, 12% sucrose) was distributed in 48 well plastic plates (Fisher Scientific™). […] The total number of living BSB nymphs was recorded four days after application. […] Percent control was measured using Abbott's correction formula (W. S. Abbott, J. Econ. Entomol. 18 (1925), pp. 265-267) as follows:
where X=No. of live nymphs on solvent check and Y=No. of live nymphs on treated bean segments. In Table B5 the “Expected % Control” was calculated using the method described in Colby S. R., Weeds, 1967, 15, 20-22. […]

[2] = test system: Brown Planthopper (Nilaparvata lugens, NILALU, BPH); test: Bioassay 6: brown planthopper, sprayed rice seedlings; assay type: in vivo; conditions: AI alone, AI Rate 0.049 g/ha, 6 days
Experimental: At these rates, F1 and the individual active ingredients were tested at a ratio of 1:1. […] F1 and triflumezopyrim were tested at a ratio of 16:1. Test solutions were prepared containing F1, the individual active ingredients, and mixtures of F1 with each of the active ingredients. Test solutions were prepared by weighing 5 mg of each test chemistry (either alone or in combination depending on the treatment) into a 25 mL glass vial. Next, 1 mL of acetone was added to each vial to dissolve the test chemistries, followed by 19 mL of water with 0.125% Tween 20 adjuvant. This test solution represented the 50 g/ha treatment, which was then serially diluted four-fold to create the three lower rates of 12.5, 3.125, and 0.78 g/ha. Triflumezopyrim was prepared in a similar manner, but two additional serial dilutions were conducted to create solutions representing 6 rates of 12.5, 3.125, 0.78, 0.19, 0.049, and 0.012 g/ha. The higher two doses were discarded, and the four lower doses were used for testing. Each rate was replicated four times, and solvent blanks were used as control treatments.
Five (5) rice seedlings (10-12 days old) planted in 3-inch pots were used as test plants. Rice seedlings were grown in soil and the soil was covered with a 2% agar solution. The test solutions were applied to test plants using a Devries laboratory research sprayer, set to spray at 200 liters per hectare (L/ha) using a TeeJet hollow cone nozzle. Following application, the rice seedlings were dried for 1 hour, after which a single clear plastic tube (2 inches in diameter×12 inches in height) was placed over the seedlings in each pot. The tube was pushed down into the agar to create a sealed test chamber. The agar prevented insects from hiding in the soil and made adult collection and grading easier. Ten to fifteen (10-15) 5th instar BPH nymphs were transferred to each test chamber using a vacuum aspirator. Immediately following BPH infestation, the test chamber was covered with a piece of grade 90 cheesecloth and secured with a rubber band, sealing the test chamber. The test chambers were held at 25° C. for 6 days, after which the total number of live insects was counted in each test chamber. Percent control was measured using Abbott's correction formula (W. S. Abbott, J. Econ. Entomol. 18 (1925), pp. 265-267) as follows:
where X=No. of live insects on solvent check and Y=No. of live insects in treated chambers. In Table B6 the “Expected % Control” was calculated using the method described in Colby S. R., Weeds, 1967, 15, 20-22. Bioassay 7: Corn Earworm (Helicoverpa zea, HELIZE, “CEW”), Fall Armyworm (Spodoptera frugiperda, LAPHFR, “FAW”), Beet Armyworm (Spodoptera exigua, LAPHEG, “BAW”),and Soybean Looper (Chrysodeixis includens, PSEPIN, “SBL”).

Compound	Average % Control AI [2]	further results
Cc1c(COC(=O)[C@@H]2[C@H](/C=C(\Cl)C(F)(F)F)C2(C)C)cccc1-c1ccccc1 (racemic) [Bifenthrin]		Average % Control AI ([1]; AI alone, Wt % AI 0.0045, EUSCHE, four days): 60.0%
C[C@]1(COC(=O)C2CC2)[C@@H]2C[C@H](O)[C@@]3(C)Oc4cc(-c5cccnc5)oc(=O)c4[C@H](O)[C@@H]3[C@@]2(C)CC[C@@H]1OC(=O)C1CC1 [Afidopyropen]	11.4%	
Cc1ccc(COCC(F)(F)F)c(N2C(=O)CS/C2=N\C(=O)Nc2ccc(-c3ncn(-c4ccc(OC(F)(F)F)cc4)n3)cc2F)c1 [F1]		Average % Control F1 ([1]; F1 alone, Wt % F1 0.0045, EUSCHE nymphs, agar diet, four days after application): 7.1%
CON=CNC(=O)c1ccc(C2=NOC(c3cc(Cl)cc(Cl)c3)(C(F)(F)F)C2)cc1C (centres unmarked) [Fluxametamide]	42.3%	
COC(=O)N(C(=O)N1CO[C@@]2(C(=O)OC)Cc3cc(Cl)ccc3C2=N1)c1ccc(OC(F)(F)F)cc1 [Indoxacarb]	1.2%	

Reference: patent publication US20260182575A1, “MOLECULES HAVING PESTICIDAL UTILITY AND INTERMEDIATES AND PROCESSES RELATED THERETO” (CORTEVA AGRISCIENCE LLC, priority 2022, published 2026)
